ChEMBL document CHEMBL1201862, “PubChem BioAssay data set” (2004)
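Results reflect a 48-hour exposure of cells in 96-well plates to compound at five concentrations. GI50 marks 50% less growth.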 Activity calls are given as the source filed them. Cut-off read from the data, not from the text of the source: active = GI50 up to about 1.1 µM and inactive = higher.

Key:
Experiment in all cases: NCI anticancer screen, dose series, 48 h
KM12 = system: KM12
MOLT-4 = system: MOLT-4
SF-268 = system: SF-268
SK-OV-3 = system: SK-OV-3
SNB-75 = system: SNB-75
UACC-62 = system: UACC-62
CAKI-1 = system: CAKI-1
T47D = system: T47D
CCRF-CEM = system: CCRF-CEM
OVCAR-8 = system: OVCAR-8
OVCAR-5 = system: OVCAR-5
Hs-578T = system: Hs-578T
PC-3 = system: PC-3
K562 = system: K562
SK-MEL-2 = system: SK-MEL-2
U-251 = system: U-251
A549 = system: A549
M14 = system: M14
SK-MEL-5 = system: SK-MEL-5
RXF 393 = system: RXF 393

SMILES	GI50 (KM12)	GI50 (MOLT-4)	GI50 (SF-268)	GI50 (SK-OV-3)	GI50 (SNB-75)	GI50 (UACC-62)	GI50 (CAKI-1)	GI50 (T47D)	GI50 (CCRF-CEM)	GI50 (OVCAR-8)	GI50 (OVCAR-5)	GI50 (Hs-578T)	GI50 (PC-3)	GI50 (K562)	GI50 (SK-MEL-2)	GI50 (U-251)	GI50 (A549)	GI50 (M14)	GI50 (SK-MEL-5)	GI50 (RXF 393)
CN(C)c1cccc(F)c1C(=O)NC(=O)Nc1ccc(Cl)cc1	2.92 µM (inactive)	1.62 µM (inactive)	12 µM (inactive)	3.75 µM (inactive)	2.4 µM (inactive)	2.38 µM (inactive)	3.78 µM (inactive)	4.86 µM (inactive)	0.745 µM (active)	5.19 µM (inactive)	8.09 µM (inactive)	2.21 µM (inactive)	2.83 µM (inactive)	0.479 µM (active)	2.29 µM (inactive)	3.69 µM (inactive)	5.48 µM (inactive)	1.93 µM (inactive)	3.33 µM (inactive)	3.67 µM (inactive)
C[S+]([O-])c1cc(=O)c2ccccc2s1 (centres undefined)	12.6 µM (inactive)	2.05 µM (inactive)	10.2 µM (inactive)	24.5 µM (inactive)	11.4 µM (inactive)	7.31 µM (inactive)	3.09 µM (inactive)	2.52 µM (inactive)	1.7 µM (inactive)	3.6 µM (inactive)	9.42 µM (inactive)	25.4 µM (inactive)	15.5 µM (inactive)	1.82 µM (inactive)	10.8 µM (inactive)	12.8 µM (inactive)	18.5 µM (inactive)	1.67 µM (inactive)	10.6 µM (inactive)	2.94 µM (inactive)
COc1cc(-c2cc(=O)c3c(OC)c(OC)c(OC)cc3o2)c(OC)c(OC)c1OC	> 75 µM (inactive)	40.2 µM (inactive)	> 75 µM (inactive)	> 75 µM (inactive)	> 75 µM (inactive)	42.5 µM (inactive)	> 75 µM (inactive)	49.3 µM (inactive)	65.2 µM (inactive)	> 75 µM (inactive)	> 75 µM (inactive)	> 75 µM (inactive)	23.6 µM (inactive)	39.1 µM (inactive)	45.6 µM (inactive)	> 75 µM (inactive)	> 75 µM (inactive)	> 75 µM (inactive)	53.7 µM (inactive)	52.1 µM (inactive)
C[C@]12CC/C(=N\OCCN3CCCCC3)C=C1CCC1C2CC[C@@]2(C)C1CC[C@]2(C)O (some centres undefined)	10.4 µM (inactive)	2.64 µM (inactive)	13.4 µM (inactive)	16.7 µM (inactive)	7.35 µM (inactive)	9.86 µM (inactive)	6.75 µM (inactive)	13.1 µM (inactive)	3.2 µM (inactive)	11.2 µM (inactive)	19.6 µM (inactive)	8.61 µM (inactive)	10.8 µM (inactive)	5.26 µM (inactive)	13.1 µM (inactive)	10.7 µM (inactive)	12.2 µM (inactive)	14.2 µM (inactive)	16.6 µM (inactive)	16.2 µM (inactive)
COc1c(O)c(O)c2c(c1O)C(=O)c1cc(C)cc(O)c1C2=O	35.2 µM (inactive)	15.4 µM (inactive)	30.2 µM (inactive)	36.8 µM (inactive)	2.97 µM (inactive)	15.3 µM (inactive)	37.9 µM (inactive)	24.8 µM (inactive)	33.3 µM (inactive)	20.1 µM (inactive)	43 µM (inactive)	19.6 µM (inactive)	31.1 µM (inactive)	37.4 µM (inactive)	> 100 µM (inactive)	50.4 µM (inactive)	45.9 µM (inactive)	22.8 µM (inactive)	29.9 µM (inactive)	> 70.8 µM (inactive)
O=C([O-])C[n+]1ccccc1.c1ccncc1	> 100 µM (inactive)	33.1 µM (inactive)	> 100 µM (inactive)	> 100 µM (inactive)	> 100 µM (inactive)	> 100 µM (inactive)	> 100 µM (inactive)	> 100 µM (inactive)	> 100 µM (inactive)	> 100 µM (inactive)	> 100 µM (inactive)	> 100 µM (inactive)	> 100 µM (inactive)	> 100 µM (inactive)	> 100 µM (inactive)	> 100 µM (inactive)	> 100 µM (inactive)	> 100 µM (inactive)	> 100 µM (inactive)	> 100 µM (inactive)
Cc1ccc([N+](=O)[O-])c2c(NCCC[N+](C)(C)[O-])c3ccccc3nc12	1.79 µM (inactive)	0.33 µM (active)	2.47 µM (inactive)	3.86 µM (inactive)	0.655 µM (active)	1.64 µM (inactive)	21 µM (inactive)	0.916 µM (active)	2.07 µM (inactive)	4.75 µM (inactive)	3.41 µM (inactive)	3.24 µM (inactive)	0.755 µM (active)	1.52 µM (inactive)	0.773 µM (active)	1.32 µM (inactive)	1.53 µM (inactive)	2.34 µM (inactive)	0.998 µM (active)	1.35 µM (inactive)
Cn1c2c3c(F)c(F)ccc3nc-2cc2ccccc21	0.927 µM (active)	0.324 µM (active)	3.24 µM (inactive)	5.57 µM (inactive)	0.805 µM (active)	3.44 µM (inactive)	2.39 µM (inactive)	0.582 µM (active)	1.91 µM (inactive)	1.74 µM (inactive)	1.92 µM (inactive)	12.2 µM (inactive)	2.85 µM (inactive)	3.11 µM (inactive)	3.27 µM (inactive)	1.58 µM (inactive)	2.34 µM (inactive)	2.11 µM (inactive)	3.04 µM (inactive)	4.05 µM (inactive)
COc1ccc(NC(=O)CC(=O)NN)cc1	> 100 µM (inactive)	> 100 µM (inactive)	> 100 µM (inactive)	> 100 µM (inactive)	> 100 µM (inactive)	> 100 µM (inactive)	> 100 µM (inactive)	> 100 µM (inactive)	> 100 µM (inactive)	> 100 µM (inactive)	> 100 µM (inactive)	> 100 µM (inactive)	> 100 µM (inactive)	> 100 µM (inactive)	> 100 µM (inactive)	> 100 µM (inactive)	> 100 µM (inactive)		> 100 µM (inactive)	> 100 µM (inactive)
C#CCn1c(=O)c(Cl)cn(/C(=C/C(=O)OCC)C(=O)OCC)c1=O	31.9 µM (inactive)	2.28 µM (inactive)	27.9 µM (inactive)	31.6 µM (inactive)	14.7 µM (inactive)	15.8 µM (inactive)	2.99 µM (inactive)	2.34 µM (inactive)	5.2 µM (inactive)	5.48 µM (inactive)	16.9 µM (inactive)	42.9 µM (inactive)	16.6 µM (inactive)	1.7 µM (inactive)	17.4 µM (inactive)	17.7 µM (inactive)	25 µM (inactive)	6.98 µM (inactive)	16.9 µM (inactive)	2.12 µM (inactive)
CS(=O)(=O)OC1CCN(C2(c3cccc(O)c3)CCCCC2)CC1	> 100 µM (inactive)	27.8 µM (inactive)	71.3 µM (inactive)	37 µM (inactive)	> 100 µM (inactive)	88.5 µM (inactive)	> 100 µM (inactive)	70.6 µM (inactive)	22.6 µM (inactive)	57.7 µM (inactive)	> 100 µM (inactive)	> 100 µM (inactive)	33.6 µM (inactive)	39.6 µM (inactive)	> 100 µM (inactive)	64.7 µM (inactive)	> 100 µM (inactive)	43 µM (inactive)	43.5 µM (inactive)	64.6 µM (inactive)
CC1=CCC[C@@](C)(O)[C@@H]2C[C@H]3C(CSc4ccccc4)C(=O)O[C@H]3[C@@H](O2)[C@H](C)CCC1 (some centres undefined)	9.18 µM (inactive)	7.13 µM (inactive)	34 µM (inactive)	21.5 µM (inactive)	13.6 µM (inactive)	14.8 µM (inactive)	25.1 µM (inactive)	22.2 µM (inactive)	> 100 µM (inactive)	13.7 µM (inactive)	15.9 µM (inactive)	18.4 µM (inactive)	6.62 µM (inactive)	9.08 µM (inactive)	17.2 µM (inactive)	21.2 µM (inactive)	10.5 µM (inactive)	13.7 µM (inactive)	14.5 µM (inactive)	13.7 µM (inactive)
O=P12N(CCN1c1ccccc1)CCN2c1ccccc1	> 100 µM (inactive)	> 100 µM (inactive)	> 100 µM (inactive)	> 100 µM (inactive)	63.7 µM (inactive)	> 100 µM (inactive)	> 100 µM (inactive)	> 100 µM (inactive)	> 100 µM (inactive)	> 100 µM (inactive)	> 100 µM (inactive)	> 100 µM (inactive)	> 100 µM (inactive)	> 100 µM (inactive)	> 100 µM (inactive)	> 100 µM (inactive)	> 100 µM (inactive)	66.8 µM (inactive)	> 100 µM (inactive)	> 100 µM (inactive)
Nc1c(S(=O)(=O)O)cc(Nc2cccc(S(=O)(=O)/C=C/S(=O)(=O)O)c2)c2c1C(=O)c1ccccc1C2=O	> 100 µM (inactive)	> 100 µM (inactive)	> 100 µM (inactive)	> 100 µM (inactive)	34.7 µM (inactive)	> 100 µM (inactive)	> 100 µM (inactive)	> 100 µM (inactive)	> 100 µM (inactive)	> 100 µM (inactive)	> 100 µM (inactive)	73.3 µM (inactive)	> 100 µM (inactive)	> 100 µM (inactive)	> 100 µM (inactive)	> 100 µM (inactive)	> 100 µM (inactive)	> 100 µM (inactive)	> 100 µM (inactive)	14.2 µM (inactive)
